Patent publication US20200338112A1, “METHODS AND MATERIALS FOR TREATING CANCER” (Mayo Foundation for Medical Education and Research, priority 2018, published 2020)
Entries after “also recorded” stand apart in the source; their conditions may differ. Where a SMILES comes first, the peptide text is derived from it. The star is where a group is joined. Cbz = O=C(OCc1ccccc1)*

Tests used:
[1] = system: NBS1 protein level in MDA-MB-231 cells; test: Western blot of NBS1 protein level after MG132 treatment; format: cell-based; details: MG132 10 μM for six hours; PD-L1 depleted MDA-MB-231 cells; FIG. 3c
Experimental: FIGS. 3a and 3b contain western blot analyses of BRCA1, NBS1, RAD50, MRE11, and PD-L1 in HCT116 and MDA-MB-231 cells, respectively, that were infected with lentiviral control shRNA or two different shRNAs targeting PD-L1. GAPDH was used as a loading control. FIG. 3c contains a western blot of NBS1 protein levels in MDA-MB-231 cells infected with lentivirus control shRNA or two different shRNAs targeting PD-L1 were treated with DMSO (control) or MG132 (10 μM) for six hours before proteins were harvested. GAPDH and p53 were used as loading and positive control, respectively. […] GAPDH was used for normalization. FIGS. 3e, 3f, and 3g assess HCT116 cells treated with the transcription inhibitor actinomycin D (5 μg/mL). NBS1 mRNA levels were quantified using RT-PCR. Knockdown of PD-L1 in HCT116 decreased the half-life of NBS1 and BRCA1 mRNA, while restoring PD-L1 in the knockdown cells rescued the phenotype (±s.e.m., n=3). GAPDH was used for normalization. […] The change of NBS1 and BRCA1 mRNA level was not due to transcription, since the transcription of BRCA1 was not changed, while the transcription of NBS1 was even increased after PD-L1 was knocked down (±s.e.m., n=3). GAPDH was used for normalization. FIG. 3i contains representative pictures of the subcellular localization of PD-L1. The immunofluorescence was performed in HCT116 cells. […]

cells = test: Colony formation of cells pretreated with durvalumab, then IR; format: cell-based; details: durvalumab 10 μg/mL, 24 hours before IR, FIG. 1f
Experimental: FIG. 1a contains colony formation experiments of HCT116 cells under either ionizing radiation (IR) (0, 2, 4 Gy) or cisplatin (0, 0.5, 1 and 2 μM) treatment. […] FIG. 1b contains knockdown and overexpression efficiency validation of PD-L1 in HCT116 using western blot; glyceraldehyde 3-phosphate dehydrogenase (GAPDH) was used as a loading control. […] The formation of rH2AX foci was sustained in PD-L1 depletion group compared to control group, data is represented as mean±s.e.m for each view. FIG. 1e contains an assessment of wild-type (+/+, n=16), PD-L1 heterozygous (+/−, n=24), and PD-L1 knockout (−/−, n=16) BALB/C mice that were exposed to whole body irradiation (7 Gy). Comparisons between groups were made using the Log-rank test. […] Result were based upon colony formation (±s.e.m., n=3).

Molecule	recovery of NBS1 protein level in PD-L1 depleted cells [1]	sensitization of cells to IR (DNA damage stimulation) (cells)
CC(C)C[C@@H](C=O)NC(=O)[C@H](CC(C)C)NC(=O)[C@H](CC(C)C)NC(=O)OCc1ccccc1 [MG132] (Cbz-Leu-Leu-Leu-aldehyde)	did not recover	
durvalumab		did not sensitize cells to DNA damage stimulation; also recorded: did not sensitize cells to IR
